The values below come from publication PMC3124071 (Journal of medicinal chemistry, 2011).

SMILES strings stand for the structures. Where only a bound is given, the exact number is not on record here.

Assay [1] addresses T1, human uric acid transporter 1 (hURAT1; SLC22A12) (Homo sapiens, UniProt Q96S37).
T1 sequence (Q96S37 1-553): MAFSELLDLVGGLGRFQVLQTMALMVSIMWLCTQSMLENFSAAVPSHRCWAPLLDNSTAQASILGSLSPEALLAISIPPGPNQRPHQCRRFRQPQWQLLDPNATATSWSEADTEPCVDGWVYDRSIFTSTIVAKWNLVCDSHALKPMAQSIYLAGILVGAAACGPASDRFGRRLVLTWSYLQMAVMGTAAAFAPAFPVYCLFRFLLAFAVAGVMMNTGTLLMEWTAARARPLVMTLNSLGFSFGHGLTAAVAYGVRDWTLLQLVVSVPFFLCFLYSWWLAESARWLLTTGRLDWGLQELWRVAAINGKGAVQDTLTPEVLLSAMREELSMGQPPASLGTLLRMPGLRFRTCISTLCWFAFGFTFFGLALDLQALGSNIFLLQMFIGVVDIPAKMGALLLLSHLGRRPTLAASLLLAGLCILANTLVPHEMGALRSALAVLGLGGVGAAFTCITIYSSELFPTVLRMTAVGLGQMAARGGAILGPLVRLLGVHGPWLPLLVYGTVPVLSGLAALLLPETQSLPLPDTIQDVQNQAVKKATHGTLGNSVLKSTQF
In words: 14C-uric acid uptake inhibition in Xenopus oocytes expressing hURAT1. It is filed as cell-based. The note with it: for 14C-urate transport inhibition (in words): test compound at 50 μM.

For assay [2] the following is noted: oral; 7 (100 mg/kg) versus 4 (300 mg/day) or 5 (1000 mg/day) ref 22; cited from earlier work.
For assay [3] the following is noted: urate-lowering therapy ref 6; cited from earlier work.

Turning to `CCc1oc2c(OC)cccc2c1C(=O)c1ccc(OC)cc1` [Compound 19, (2-ethyl-7-methoxybenzofuran-3-yl)(4-methoxyphenyl)methanone], the “14C-urate transport inhibition (in words)” value in assay [1] is “weak inhibition”.
Turning to `CCc1oc2ccccc2c1C(=O)c1cc(Br)c(O)c(Br)c1` [Compound 7, (3,5-dibromo-4-hydroxyphenyl)(2-ethylbenzofuran-3-yl)methanone], the “physiological effect (lowers urate level) compared with 4 and 5” value in assay [2] is “greater physiological effect”.
In general, IC50 refers to the point on the concentration scale where inhibition reaches its midpoint. A low value points to inhibition by little substance. With `CCc1oc2ccccc2c1C(=O)c1ccc(OC)cc1` [Compound 12, (2-ethylbenzofuran-3-yl)(4-methoxyphenyl)methanone], in assay [1], the half-maximal inhibitory concentration (IC50) was over 50000 nM and the “14C-urate transport inhibition (in words)” value was “weak-to-no”.
Regarding `CCc1oc2ccc(OC)cc2c1C(=O)c1ccc(OC)cc1` [Compound 14, (2-ethyl-5-methoxybenzofuran-3-yl)(4-methoxyphenyl)methanone], the “14C-urate transport inhibition (in words)” value in assay [1] is on record as “weak inhibition”.
A word on the inhibition: it is the drop in the measured response relative to a control, in per cent. In turn, `CCc1oc2cc(OC)c(Br)cc2c1C(=O)c1cc(Br)c(O)c(Br)c1` [Compound 46, (5-bromo-2-ethyl-6-methoxybenzofuran-3-yl)(3,5-dibromo-4-hydroxyphenyl)methanone] showed an IC50 in assay [1] of 1650 ± 120 nM. For the same molecule, the inhibition at 50 µM in assay [1] (read-out: % Inhibition @ 50 μM) amounted to 98.1 ± 0.2%.
As to `Oc1ncnc2[nH]ncc12` [Compound 3, allopurinol], the “patients able to meet treatment goals” value in assay [3] is listed as “about 40%”.
